Assay results from ChEMBL document CHEMBL3351598, “Strategies for the modulation of phase II metabolism in a series of PKCε inhibitors” (Bioorg Med Chem Lett, 2014).

Test: AUC in beagle dog at 10 mg/kg, iv bolus dose
Type: ADME, organism-based, Canis lupus familiaris
Design: dose 10 mg/kg, route intravenous
Settings: plasma

Row | AUC | SMILES
1 | 130 ng·h/mL | N#CC1(c2cc(CCO)cc(-c3ccnc4[nH]nc(C(F)(F)F)c34)c2)CC1
2 | 4400 ng·h/mL | N#CC1(c2cc(C[C@@H](O)CO)cc(-c3ccnc4[nH]nc(C(F)(F)F)c34)c2)CC1
